Publication PMC11173529, “Structure–Activity Relationship Studies in a Series of Xanthine Inhibitors of SLACK Potassium Channels” (Molecules, 2024)

Target: T1, human G288S SLACK (Homo sapiens, UniProt Q5JUK3, G269S)
T1 construct: host or cells: CHO-K1
T1 sequence (Q5JUK3 1-1235 isoform Q5JUK3-3 G288S): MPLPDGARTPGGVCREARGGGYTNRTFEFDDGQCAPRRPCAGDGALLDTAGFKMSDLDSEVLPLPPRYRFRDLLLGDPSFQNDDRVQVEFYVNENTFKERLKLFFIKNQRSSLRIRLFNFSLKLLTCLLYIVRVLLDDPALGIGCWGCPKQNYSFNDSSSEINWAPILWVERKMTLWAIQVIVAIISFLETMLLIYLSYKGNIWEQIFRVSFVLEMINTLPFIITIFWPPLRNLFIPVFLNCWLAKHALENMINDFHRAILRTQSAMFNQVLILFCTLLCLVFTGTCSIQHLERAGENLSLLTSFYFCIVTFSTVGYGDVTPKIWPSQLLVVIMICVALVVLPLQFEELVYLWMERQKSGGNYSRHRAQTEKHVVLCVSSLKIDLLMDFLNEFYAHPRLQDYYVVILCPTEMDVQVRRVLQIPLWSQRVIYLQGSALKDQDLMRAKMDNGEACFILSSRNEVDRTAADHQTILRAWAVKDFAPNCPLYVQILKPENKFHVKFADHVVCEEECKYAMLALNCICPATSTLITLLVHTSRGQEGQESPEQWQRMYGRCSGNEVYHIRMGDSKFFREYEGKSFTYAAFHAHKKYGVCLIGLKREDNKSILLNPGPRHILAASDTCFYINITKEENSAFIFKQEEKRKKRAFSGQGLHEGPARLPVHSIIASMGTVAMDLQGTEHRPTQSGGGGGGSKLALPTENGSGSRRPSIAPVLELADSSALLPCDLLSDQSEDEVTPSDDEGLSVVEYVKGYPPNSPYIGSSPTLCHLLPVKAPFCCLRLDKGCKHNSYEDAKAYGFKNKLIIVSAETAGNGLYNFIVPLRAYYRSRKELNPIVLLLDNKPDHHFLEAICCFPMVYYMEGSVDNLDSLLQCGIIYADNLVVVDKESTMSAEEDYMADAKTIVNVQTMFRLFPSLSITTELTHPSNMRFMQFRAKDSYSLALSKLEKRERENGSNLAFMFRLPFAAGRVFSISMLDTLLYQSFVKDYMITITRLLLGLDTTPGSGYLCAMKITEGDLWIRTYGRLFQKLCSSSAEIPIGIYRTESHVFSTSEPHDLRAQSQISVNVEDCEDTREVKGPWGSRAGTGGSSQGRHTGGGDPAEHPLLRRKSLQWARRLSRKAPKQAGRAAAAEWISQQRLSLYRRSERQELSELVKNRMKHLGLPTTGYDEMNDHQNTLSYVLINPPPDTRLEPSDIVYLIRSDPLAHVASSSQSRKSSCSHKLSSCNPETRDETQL
Assay: Whole-cell APC in CHO cells stably expressing human G288S SLACK
Format: cell-based
Conditions: for IC50: APC, CHO cells; for Imax: maximum inhibition at 30 µM standardized to VU0606170 (100%)
Description: Development of a useful SLACK inhibitor in vivo tool will require potent activity at the corresponding mouse ortholog as studies in appropriate mouse models will be critical. Thus, we evaluated analogs 32 and 48 in our APC assay using CHO cells stably expressing mouse WT SLACK (Table 6). […] We were also eager to evaluate the same compounds with regard to their ability to inhibit clinically relevant GOF SLACK mutants. Both the C-terminus A934T mutant and transmembrane G288S mutant have been associated with clinical cases of EIMFS [3, 7].
Stably transfected monoclonal HEK293 cell lines expressing Slick, Maxi-K α1/β3, Maxi-K α1/β4, CaV3.2, GIRK 1/2, KV2.1, KV7.2, NaV1.7, and TASK-1 were generated as previously described. Stably transfected monoclonal HEK293 cell lines expressing hERG were generated as previously described. CHO-K1 cells expressing human Slack and disease-associated human Slack mutations, G288S and A934T, were generated by transfecting a PiggyBac TRE mammalian expression vector (VectorBuilder, Chicago, IL, USA) containing KCNT1. FuGENE 6 (Promega, Madison, WI, USA) transfection reagent and protocol, together with Opti-MEM (Thermo Fisher Scientific, Walkham, MA, USA), were utilized.
Automated patch-clamp recording was performed with a SyncroPatch 768 PE system (Nanion, Munich, Germany) as previously described. Whole-cell recordings were performed at room temperature. Cells were harvested by first washing with PBS without Mg^2+ or Ca^2+ (Gibco, Billings, MT, USA) to remove cell culture media, followed by dissociation with TryPLE (Gibco, Billings, MT, USA). Cells were then resuspended and diluted to 100,000 cells/mL in external solution. External solution contained 105 mM NaCl, 4 mM KCl, 1 mM MgCl2, 5 mM CaCl2, 10 mM HEPES, and 40 mM N-Methyl-D-glucamine chloride, titrated to pH of 7.4 and osmolarity of 300 mOsm/kg; internal solution contained 70 mM NaCl, 70 mM KF, 10 mM KCl, 5 mM EGTA, and 5 mM HEPES, titrated to a pH of 7.2 and osmolarity of 295 mOsm/kg.
The APC protocol was set as follows: Cells were held at a […] of −80 mV for 100 ms, then a ramp protocol was performed from −100 mV to 80 mV at 0.4 mV/ms, followed by holding the cell at −80 mV for another 100 ms, then steps were performed at −20 mV, 0 mV, +20 mV, +40 mV, and +60 mV for 100 ms of each step. Whole-cell currents were measured at 0 mV and normalized to current after external buffer addition. […] To obtain the concentration-response relationship graphs and IC50 values, we take the median value of the last 7 current amplitude values obtained for each set of data points collected for a given concentration at a particular step.

SMILES	IC50 [nM]	Imax [%]
COc1cccc(Cn2c(=O)c3c(nc(N(Cc4cccc(F)c4)CC4CC4)n3C)n(C)c2=O)c1 [Analog 79]	1000	–
CCCCN(Cc1cccc(F)c1)c1nc2c(c(=O)n(Cc3cccc(OC)c3)c(=O)n2C)n1C [Analog 78]	880	–
COc1cccc(Cn2c(=O)c3c(nc(N(Cc4ccc(F)cc4)CC4CC4)n3C)n(C)c2=O)c1 [Analog 81]	790	–
CN(Cc1cccc(F)c1)c1nc2c(c(=O)n(Cc3ccccc3)c(=O)n2C)n1C [Analog 48]	750	100
CCCCN(Cc1ccc(F)cc1)c1nc2c(c(=O)n(Cc3cccc(OC)c3)c(=O)n2C)n1C [Analog 80]	710	–
COc1cccc(Cn2c(=O)c3c(nc(N(C)Cc4ccccc4)n3C)n(C)c2=O)c1 [Analog 32]	650	100
